Assay results from patent US20220098265A1 (MEDIMMUNE LIMITED, priority 2012, published 2022).
Numbered stars: 1 amine (or outer) side, 2 acyl side, 3 side chain; on linkers, the order of the positions; unused ones are H or OH. Side chains are listed from the residue outwards. Peptide text beside a SMILES is read from it. * marks the point of attachment. γGlu = O=C(O)[C@H](CCC(=O)[*:2])N[*:1]; Palmitoyl = CCCCCCCCCCCCCCCC(=O)*

Tests used:
[1] = Peptide solubility in buffers (A280); details: target 1 mg/ml
[2] = Stability testing of peptides in human plasma; assay type: in vitro ADME
Procedure: (§1) Stability testing of peptides in plasma. The stability in plasma of the peptides […], […], […] and […] was determined as follows. […] The frozen blank plasma from human, rat and mouse had been thawed and heated to a temperature of 37° C. before addition of the stock solution. The spiked plasma samples were gently mixed and allowed to equilibrate for about 5 minutes before start of experiment. The plasma samples were incubated for 48 hours in a Galaxy® CO2 incubator at 37° C. […] The samples were stored at -70° C. until analysis. Plasma samples were assayed as follows. The 30 μL plasma samples were protein precipitated with […] of cold ethanol in a 96-well low bind plate (Eppendorf Protein LoBind). After mixing and centrifugation 100 μl the supernatant was transferred to a new plate and 1 μl was injected onto an analytical column. The analysis was performed using a μLC-system ([…]) coupled to a medium high resolution mass spectrometer (Perkin Elmer PenTOF) with positive electrospray ionisation. […] Flow: 0.1 ml/min using a slow reversed phase gradient. […] Products with +1 mass may arise from deamidation at amide groups of glutamine or at the C-terminus. Cleavage products arise from the action of the protease DPP IV in plasma. Both the degradation of the peptides and formation of peptide products were reported in percentage of the initial peptide concentration. Peaks were integrated and % remaining peptide was calculated: […] Levels of deamidation and DPP IV cleavage were low for […] and […].

Mouse GlucR = Mouse GlucR (Mus musculus, UniProt Q61606); assay: cAMP assay 2 in […] mouse serum albumin, mouse GlucR; details: assay 2, […] Mouse Serum Albumin; relative potencies vs natural ligands
Chain of Mouse GlucR (Q61606 27-485): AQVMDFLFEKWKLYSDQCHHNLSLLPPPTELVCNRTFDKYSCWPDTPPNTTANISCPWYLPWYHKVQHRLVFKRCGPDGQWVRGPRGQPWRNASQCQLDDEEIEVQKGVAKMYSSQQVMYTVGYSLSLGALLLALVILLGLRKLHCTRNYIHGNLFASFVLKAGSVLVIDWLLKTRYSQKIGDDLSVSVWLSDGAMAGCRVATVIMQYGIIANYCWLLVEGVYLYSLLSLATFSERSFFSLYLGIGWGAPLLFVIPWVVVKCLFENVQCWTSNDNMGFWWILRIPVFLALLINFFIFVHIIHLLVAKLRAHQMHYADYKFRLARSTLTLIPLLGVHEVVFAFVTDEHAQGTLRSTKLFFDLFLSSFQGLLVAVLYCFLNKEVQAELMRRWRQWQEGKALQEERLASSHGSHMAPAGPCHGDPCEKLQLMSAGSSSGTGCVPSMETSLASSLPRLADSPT

Human GlucR = Human GlucR (Homo sapiens, UniProt P47871); assay: cAMP assay 2 in 4.4% human serum albumin, human GlucR; details: assay 2, 4.4% Human Serum Albumin; relative potency GlucR (vs glucagon)/relative potency GLP1R (vs GLP1)
Chain of Human GlucR (P47871 26-477): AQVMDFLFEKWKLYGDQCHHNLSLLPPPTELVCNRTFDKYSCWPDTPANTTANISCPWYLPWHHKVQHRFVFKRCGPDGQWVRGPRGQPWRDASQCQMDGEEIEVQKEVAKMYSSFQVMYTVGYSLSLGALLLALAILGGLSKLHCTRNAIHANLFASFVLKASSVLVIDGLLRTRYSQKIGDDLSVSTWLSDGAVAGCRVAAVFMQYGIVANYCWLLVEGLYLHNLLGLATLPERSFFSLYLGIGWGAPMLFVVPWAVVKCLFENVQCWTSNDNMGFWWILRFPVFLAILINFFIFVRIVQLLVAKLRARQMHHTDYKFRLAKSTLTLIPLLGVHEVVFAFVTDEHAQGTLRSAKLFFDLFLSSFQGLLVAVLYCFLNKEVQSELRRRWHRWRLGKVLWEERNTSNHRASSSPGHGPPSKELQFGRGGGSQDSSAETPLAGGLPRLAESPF

[3] = Stability testing of peptides in rat plasma; assay type: in vitro ADME
Procedure: Stability testing of peptides in plasma. The stability in plasma of the peptides […], […], […] and […] was determined as follows. […] The frozen blank plasma from human, rat and mouse had been thawed and heated to a temperature of 37° C. before addition of the stock solution. The spiked plasma samples were gently mixed and allowed to equilibrate for about 5 minutes before start of experiment. The plasma samples were incubated for 48 hours in a Galaxy® CO2 incubator at 37° C. […] The samples were stored at -70° C. until analysis. Plasma samples were assayed as follows. The 30 μL plasma samples were protein precipitated with […] of cold ethanol in a 96-well low bind plate (Eppendorf Protein LoBind). After mixing and centrifugation 100 μl the supernatant was transferred to a new plate and 1 μl was injected onto an analytical column. The analysis was performed using a μLC-system ([…]) coupled to a medium high resolution mass spectrometer (Perkin Elmer PenTOF) with positive electrospray ionisation. […] Flow: 0.1 ml/min using a slow reversed phase gradient. […] Products with +1 mass may arise from deamidation at amide groups of glutamine or at the C-terminus. Cleavage products arise from the action of the protease DPP IV in plasma. […] Peaks were integrated and % remaining peptide was calculated: […] […]

DIO mice = assay: Diet induced obesity (DIO) mouse model, study A; assay type: in vivo; details: for HOMA / Hepatic TG / Plasma NEFA / Plasma TG: day 14; for FGF21 / BeHy: day 14 (dose from row order); for Glucose / Insulin: day 14, 4-hour fasting; for BeHy: beta-hydroxybutyrate
Description: Female C57/B16JHsdOla (obtained from Harlan Laboratories, UK) were started on a high fat diet of D12492 (Research Diets, NJ, USA) and a chocolate confection, delicato ball (Delicata Bakverk, Sweden) at 9-11 weeks of age, and were maintained on the diet for 16 weeks prior to arrival to the animal facility, during a three week acclimatizion period and during drug treatment, caloric content of the two components of the diet is shown in Table 11. The mice were divided into 9 groups (n=5-6), and treatment was started at 29 weeks of age.
The body weight of the animals was monitored daily throughout the dosing period. At day 14, blood samples for the measurement of plasma glucose and insulin from conscious mice were obtained after a 4-hour fasting period. Mice were then anaesthetized using isofluorane and terminal blood was collected from the capillary bed behind the eye. The following parameters were measured: blood chemistry measurements of triglycerides, total cholesterol, non-esterified fatty acids (NEFA), beta-hydroxybutyrate and fibroblast growth factor 21 (FGF21) (Tables 14 and 15 below).

physchem = details: pH 7.2
Procedure: Peptide solubility was assessed in three different isotonic formulations: • 1. […] Final formulation pH=7.2 • 2. Back up formulation 1 (BF1)=0.05M Tris, 50 mM Arginine/Proline. Final formulation pH=8.0 • 3. […] Final formulation pH=7.0

Rat GlucR = Rat GlucR (Rattus norvegicus, UniProt P30082); assay: cAMP assay 2 in […] rat serum albumin, rat GlucR; details: assay 2, […] Rat Serum Albumin; relative potencies vs natural ligands
Chain of Rat GlucR (P30082 27-485): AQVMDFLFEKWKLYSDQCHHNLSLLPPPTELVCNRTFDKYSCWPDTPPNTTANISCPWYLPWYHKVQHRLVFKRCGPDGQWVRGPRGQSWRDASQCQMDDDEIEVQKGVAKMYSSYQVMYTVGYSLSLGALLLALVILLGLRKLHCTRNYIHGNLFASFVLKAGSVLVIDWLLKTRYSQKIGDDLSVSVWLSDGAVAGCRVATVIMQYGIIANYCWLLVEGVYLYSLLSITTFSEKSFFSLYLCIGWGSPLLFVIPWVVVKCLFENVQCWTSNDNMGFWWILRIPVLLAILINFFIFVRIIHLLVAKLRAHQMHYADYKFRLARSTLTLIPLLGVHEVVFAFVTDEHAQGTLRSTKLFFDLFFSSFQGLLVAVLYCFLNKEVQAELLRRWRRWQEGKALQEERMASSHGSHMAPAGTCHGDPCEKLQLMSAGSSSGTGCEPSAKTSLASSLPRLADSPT

[4] = Stability testing of peptides in mouse plasma; assay type: in vitro ADME
Procedure: as §1

human serum albumin = human serum albumin (Homo sapiens, UniProt P02768); assay: Fraction of free peptide at plasma concentration of albumin, calculated from variation in cAMP generation with HSA concentration; assay type: in vitro ADME; parameters: purchased Sigma Aldrich; details: calculated from variation in cAMP generation with HSA concentration
Chain of human serum albumin (P02768 25-609): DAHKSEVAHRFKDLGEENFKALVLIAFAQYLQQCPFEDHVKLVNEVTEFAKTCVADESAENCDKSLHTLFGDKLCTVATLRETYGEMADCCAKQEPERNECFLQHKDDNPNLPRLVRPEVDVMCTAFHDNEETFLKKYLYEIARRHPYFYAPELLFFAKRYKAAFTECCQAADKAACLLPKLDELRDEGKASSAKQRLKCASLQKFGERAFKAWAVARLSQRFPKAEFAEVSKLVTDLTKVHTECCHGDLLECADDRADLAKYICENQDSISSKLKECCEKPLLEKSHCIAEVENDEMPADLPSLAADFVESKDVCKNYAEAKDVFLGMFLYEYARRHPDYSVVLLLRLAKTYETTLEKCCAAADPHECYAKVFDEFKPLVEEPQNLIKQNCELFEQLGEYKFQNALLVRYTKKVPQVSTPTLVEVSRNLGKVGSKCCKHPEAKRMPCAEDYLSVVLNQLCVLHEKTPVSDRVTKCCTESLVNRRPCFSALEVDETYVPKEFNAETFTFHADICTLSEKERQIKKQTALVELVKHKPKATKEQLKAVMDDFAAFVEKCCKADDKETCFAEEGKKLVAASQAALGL

SMILES: CCCCCCCCCCCCCCCC(=O)N[C@@H](CCC(=O)NCCCC[C@H](NC(=O)[C@H](CCCCN)NC(=O)[C@H](CO)NC(=O)[C@H](Cc1ccc(O)cc1)NC(=O)[C@H](CC(=O)O)NC(=O)[C@H](CO)NC(=O)[C@@H](NC(=O)[C@H](Cc1ccccc1)NC(=O)[C@@H](NC(=O)CNC(=O)[C@H](CCC(N)=O)NC(=O)[C@H](CO)NC(=O)[C@@H](N)Cc1c[nH]cn1)[C@@H](C)O)[C@@H](C)O)C(=O)N[C@@H](CC(C)C)C(=O)N[C@@H](CC(=O)O)C(=O)N[C@@H](CO)C(=O)N[C@@H](CCC(=O)O)C(=O)N[C@@H](CCCNC(=N)N)C(=O)N[C@@H](C)C(=O)N[C@@H](CCCNC(=N)N)C(=O)N[C@@H](CC(=O)O)C(=O)N[C@@H](Cc1ccccc1)C(=O)N[C@H](C(=O)N[C@@H](C)C(=O)N[C@@H](Cc1c[nH]c2ccccc12)C(=O)N[C@@H](CC(C)C)C(=O)N[C@H](C(=O)N[C@@H](C)C(=O)NCC(=O)NCC(N)=O)C(C)C)C(C)C)C(=O)O [Peptide G730] (H-HSQGTFTSDYSKK([γGlu-Palmitoyl])LDSERARDFVAWLVAGG-NH2; N-terminus assumed)
- Conc. (mg/ml) A280 ([1]; Glutamate pH 4.5, 100 mM): 0.83 mg/mL
- Conc. (mg/ml) A280 ([1]; Phosphate pH 6.5, 100 mM): 0.83 mg/mL
- Conc. (mg/ml) A280 ([1]; Phosphate pH 7.5, 100 mM): 0.85 mg/mL
- Conc. (mg/ml) A280 ([1]; Phosphate, pH = 6, 100 mM): 0.14 mg/mL
- Conc. (mg/ml) A280 ([1]; Tris pH 7.5, 100 mM): 0.83 mg/mL
- Conc. (mg/ml) A280 ([1]; Tris pH 8.0, 100 mM): 1.1 mg/mL
- % +1 prod [2]: <1%
- % DPP cleaved product/+1 DPP cleaved product [2]: <1%
- Mouse GlucR/GLP1R Ratio (Mouse GlucR): 0.04
- Human GlucR/GLP1R Ratio (Human GlucR): 0.122
- % +1 prod [3]: 58%
- % DPP cleaved product/+1 DPP cleaved product [3]: 2%
- BW day 14 (% change of vehicle mean) (DIO mice; 10 nmol/kg s.c. twice daily for 14 days): −7.5%
- HOMA (DIO mice; 10 nmol/kg s.c. twice daily): 3.3
- Hepatic TG (DIO mice; 10 nmol/kg s.c. twice daily): 9.0 g TG/100g Tissue
- Plasma NEFA (DIO mice; 10 nmol/kg s.c. twice daily): 0.28 mM
- Plasma TG (DIO mice; 10 nmol/kg s.c. twice daily): 0.21 mM
- FGF21 (DIO mice; 10 nmol/kg s.c. twice daily): 1963 pg/mL
- Glucose (DIO mice; 10 nmol/kg s.c. twice daily): 7.2 mM
- Insulin (DIO mice; 10 nmol/kg s.c. twice daily): 0.4 nM
- BW day 14 (% change of vehicle mean) (DIO mice; 20 nmol/kg s.c. twice daily for 14 days): −15.6%
- HOMA (DIO mice; 20 nmol/kg s.c. twice daily): 1.7
- Hepatic TG (DIO mice; 20 nmol/kg s.c. twice daily): 17.7 g TG/100g Tissue
- Plasma NEFA (DIO mice; 20 nmol/kg s.c. twice daily): 0.26 mM
- Plasma TG (DIO mice; 20 nmol/kg s.c. twice daily): 0.2 mM
- FGF21 (DIO mice; 20 nmol/kg s.c. twice daily): 2236 pg/mL
- Glucose (DIO mice; 20 nmol/kg s.c. twice daily): 6.7 mM
- Insulin (DIO mice; 20 nmol/kg s.c. twice daily): 0.2 nM
- insulin sensitivity index HOMA (DIO mice; 20 nmol/kg, result in words): significantly improved
- change in weight at day 14 as compared to the vehicle-treated animals (DIO mice; 50 nmol/kg): about 24%
- BW day 14 (% change of vehicle mean) (DIO mice; 50 nmol/kg s.c. twice daily for 14 days): −24.0%
- HOMA (DIO mice; 50 nmol/kg s.c. twice daily): 2.1
- Hepatic TG (DIO mice; 50 nmol/kg s.c. twice daily): 28.1 g TG/100g Tissue
- Plasma NEFA (DIO mice; 50 nmol/kg s.c. twice daily): 0.32 mM
- Plasma TG (DIO mice; 50 nmol/kg s.c. twice daily): 0.23 mM
- FGF21 (DIO mice; 50 nmol/kg s.c. twice daily): 5294 pg/mL
- Glucose (DIO mice; 50 nmol/kg s.c. twice daily): 5.9 mM
- Insulin (DIO mice; 50 nmol/kg s.c. twice daily): 0.3 nM
- Total plasma cholesterol (DIO mice; at all doses, result in words): lowered
- BeHy (DIO mice; 10 nmol/kg s.c. twice daily): 428 µmol/L
- BeHy (DIO mice; 20 nmol/kg s.c. twice daily): 750 µmol/L
- BeHy (DIO mice; 50 nmol/kg s.c. twice daily): 1477 µmol/L
- effect on body weight over the 14 day dosing period (DIO mice; study A, FIGS. 1-4): dose dependent and continuous weight loss
- glucose levels at day 14 (DIO mice; study A, result in words): dose-dependent reduction
- solubility (physchem): ≥ 5000 µg/mL
- Rat GlucR/GLP1R Ratio (Rat GlucR): 0.06
- % +1 prod [4]: 15%
- % DPP cleaved product ([4]; Mouse Plasma at 24 h, 37° C., column % DPP cleaved product/+1 DPP cleaved product, first figure): 14%
- % +1 DPP cleaved product ([4]; Mouse Plasma at 24 h, 37° C., column % DPP cleaved product/+1 DPP cleaved product, second figure): 5%
- free peptide at 4.4% HSA (human serum albumin): 0.85%
